According to patent US20060110405A1, “Plasma or serum fraction for treatment and prevention of viral infections and related conditions” (priority 2004, published 2006):
Converted amounts (≈) assume the structure as drawn.

Columns and labels:
HIV-1 IIIB = assay: microbe, parasite or virus in culture; format: cell-based
Procedure: Antibody depletion experiments were conducted on the product prepared as described in Example 3 by the panning technique as follows. […] The plate was incubated for 3 hours at room temperature. Following the incubation, the antibodies and PBS were removed and 200 μL of blocking solution (0.05% Tween 20, 10 mg/mL BSA in PBS) was added and the plate was incubated overnight at 4° C. Following the overnight incubation, the wells were washed 5 times with wash buffer (PBS plus 0.05% Tween-20). One hundred fifty microliters (150 μL) of the serum product (designated VR-30) was added to each of the wells and the plate was incubated for 2 hours at 37° C.
The serum was then removed and used in the HIV-β-galactosidase attachment assay. The depleted material was evaluated for activity in parallel with undepleted VR-30 (VR-30 Std Treatment) and mock-depleted VR-30 (VR-30 PBS).
The anti-HIV-activity of the initial serum sample is determined by: (1) measuring the protein concentration of the serum fraction using Bradford or Lowery based method for determining protein concentration; (2) determining the activity of the fraction using established in vitro anti-viral assay (attachment assay); (3) assigning a unit of activity to the fraction based on the amount of protein needed to achieve a 50% inhibition of viral replication/infectivity (IC50). This unit can be used as a baseline to track the fold purification obtained through the fractionation process.
Efficacy plates were evaluated by the chemilluminescence detection assay.
All EC50's in FIG. 2 and Table IV are the concentration of total protein (μg/ml) in a given fraction that inhibited viral replication in the attachment assay to 50% of the no compound control.

HeLa LTR β-Gal cells = assay: Cellular toxicity in parallel plates, tetrazolium dye (XTT) cell viability end point
Procedure: The fold increase in activity was calculated as a relative decrease in EC50 to the Week 0 material. Chicago Sky Blue was included as a positive control for inhibition of viral attachment.
HIV Attachment Assay: A crude serum sample dialyzed against Buffer A, the dialyzed 66% ammonium sulfate pellet, and DEAE-Blue fractions 12, 14, 60, 62, 64, and 66 were analyzed for anti-HIV activity in a virus attachment assay. These fractions were diluted in Buffer A to a 2× high test concentration and analyzed for anti-HIV activity in a cell attachment assay that utilizes a galactosidase reporter to measure virus attachment and infection. Sister plates were used to evaluate fraction toxicity using an XTT based end point. Briefly, on the day prior to compound and virus addition, 100 μL of HeLa LTR β-Gal cells at a density of 1×10^4/well in 10% complete DMEM were plated in 96-well flat bottomed plates and incubated overnight at 37° C./5% CO2. Duplicate plates were seeded in order to evaluate efficacy and toxicity in parallel. Following the overnight incubation, selected protein fractions diluted to a high test concentration in culture media and were further diluted in ½ log increments such that a total of 6 concentrations were evaluated.
Medium was removed and 50 μL of the prepared compound dilutions were added in triplicate to both plates. A volume of 50 μL of 10% complete DMEM was added to the virus control wells and 100 μL was added to the cell control wells. Plates were incubated for approximately 15-30 minutes while virus (HIV-1 IIIB) was being prepared. The appropriate titer of virus used in the assay was determined and prepared and 50 μL was then added to the wells containing compound and the virus control wells on the efficacy plate. On the toxicity plate, 50 μL of 10% complete DMEM was added to these same wells. Plates were incubated for 2 hours at 37° C./5% CO2. […] Following the washing steps, 200 μL of 10% complete DMEM was added to all wells and the plates were incubated at 37° C./5% CO2 for 48 hours. The toxicity plates were evaluated by the addition of the tetrazolium dye XTT which is converted by mitochondrial enzymes in viable cells to a soluble formazan product. Efficacy plates were evaluated by the chemilluminescence detection assay.

[1] = tested on: monocytes and macrophages; details: antiviral models and cytokine induction from monocytes and macrophages; cited from earlier work

Row | Molecule | IC50 (HIV-1 IIIB; Human immunodeficiency virus 1, IIIB, HeLa) [mg/L] | EC50 (HIV-1 IIIB; Human immunodeficiency virus 1, IIIB, HeLa, Table II, total protein for 50% inhibition of HIV attachment and replication, triplicate) [mg/L] | EC50 (HIV-1 IIIB; Human immunodeficiency virus 1, IIIB, HeLa, Table V, total protein inhibiting viral replication to 50% of no compound control, HIV-1 IIIB) [mg/L] | TC50 (HeLa LTR β-Gal cells; Table I, control compounds) [mg/L] | TC50 (HeLa LTR β-Gal cells; Table II, 50% cellular toxicity, XTT) [mg/L] | TC50 (HeLa LTR β-Gal cells; Table V, XTT toxicity plates) [mg/L] | potency relative to imiquimod [1] | IC50 (HIV-1 IIIB; Table I, control compounds) [mg/L]
1 | COc1cc(-c2ccc(/N=N/c3ccc4c(S(=O)(=O)O)cc(S(=O)(=O)O)c(N)c4c3O)c(OC)c2)ccc1/N=N/c1ccc2c(S(=O)(=O)O)cc(S(=O)(=O)O)c(N)c2c1O [Chicago Sky Blue] | 1.3 (≈ 1.44 µM) | 100 (≈ 111 µM) | 0.6 (≈ 0.663 µM) | >10 | >10000 | >10 |  | 
2 | CCOCc1nc2c(N)nc3ccccc3c2n1CC(C)(C)O [Fraction S-28463, 4-Amino-otec,-dimethyl-2-ethoxymethyl-lH-imidazo[4,5-c]quinoline-1-ethanol] |  |  |  |  |  |  | about 100 fold | 
3 | Dextran Sulfate |  |  |  | >25 |  |  |  | 0.65
